This is an account of results in PubChem BioAssay AID504874 (NMMLSC, 2011).

The structures appear in SMILES notation. The source made the active and inactive calls.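 The calls were made as follows: active = normalized viability below 40% relative to DMSO and staurosporine controls, called cytotoxic; inactive = the rest.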

The test system of the assay is L1210 murine leukemia viability, fluorescein diacetate flow cytometry, 48 h. The experiment in a line: viability of murine L1210 leukemia line – cell-based, cytotoxicity control for T cell immune modulator project (AID 504874). Particulars: at 20 µM; hits give low values.
On to `Cc1ccc(C(=O)NCCCN2CCOCC2)c(C)c1`, for which the viability is 108% (inactive).
On to `CCCc1nnc(NC(=O)c2ccc(S(=O)(=O)N(C)c3ccccc3OC)cc2)s1`, for which the viability was 59.6% (inactive).
The result for `c1ccc(COc2ccc(OCCN3CCCCC3)cc2)cc1` reads 57.1% (inactive); that for `CCOC(=O)N1CCN(C(=O)c2ccc(CS(=O)Cc3ccc(C)cc3)o2)CC1` (stereo not drawn), 107% (inactive).
The figure for `Cc1sc2ncnc(NCC(C)(C)N3CCOCC3)c2c1C` is -4.46%.
With `Cc1ccc(S(=O)(=O)N2CCN(S(=O)(=O)N(C)C)CC2)c(C)c1`, the viability is 105% (inactive).
The result for `CCCCOc1ccc(C(=O)NCC(=O)N2CCN(C(=O)c3ccco3)CC2)cc1` reads 107% (inactive); that for `CCOC(=O)C1CCCN(S(=O)(=O)c2ccc(F)c(C(=O)Nc3ccc(F)c(F)c3)c2)C1` (stereo not drawn), 91.6% (inactive).
Take `CCOC(=O)c1ccc(NC(=O)CN2C(=O)NC3(CCCCCCC3)C2=O)cc1`: the viability was 98.6% (inactive).
The result for `Cc1cc(C)n(C(=O)c2sc3cc(F)ccc3c2Cl)n1` reads 107% (inactive); that for `CN1CCN(S(=O)(=O)c2ccc(C(=O)Nc3ccccc3)cc2)CC1`, 108% (inactive); that for `COC(=O)c1ccccc1NC(=O)C1CCN(C(=O)c2cc(OC)cc(OC)c2)CC1`, 108% (inactive).
The figure for `COc1ccc(C(O)c2coc3ccc(O)c(CN(C)C)c23)cc1` (stereo not drawn) is 87.4% (inactive); for `COc1ccc(/C=C2\SC(=S)N(CCC(=O)N3CCOCC3)C2=O)cc1` it is 90.8% (inactive); for `COc1ccc(CNC(=O)c2cccnc2SC)cc1OC` it is 101% (inactive).
The result for `Cc1ccc(N2CC(C(=O)NC3=NCCS3)CC2=O)cc1` (stereo not drawn) reads 102% (inactive); that for `Cc1cccc(NC(=O)C2CCN(S(=O)(=O)c3c(C)[nH]c(=O)[nH]c3=O)CC2)c1`, 110% (inactive).
Take `O=C1CC(c2nc3ccccc3[nH]2)CN1Cc1ccccc1` (stereo not drawn): the viability is 103% (inactive).
`CCC(C(=O)Nc1ccccc1)c1ccccc1` (stereo not drawn): the viability is 98.3% (inactive).
The figure for `O=C(CCC(=O)N1CCOCC1)NCc1cccc(C(F)(F)F)c1` is 110% (inactive).
`CCN(CC)CCNC(=O)CCCNC(=O)Cn1cnc2sc(C)c(C)c2c1=O`: the viability was 104% (inactive).
The result for `COc1ccc(Nc2ccccc2N)cc1` reads 90.2% (inactive); that for `CCCNC(=O)c1nc2ncc(Br)cn2n1`, 103% (inactive).
With `Cc1ccc(S(=O)(=O)N2CCN(C(=O)CNC(=O)c3ccc(Cl)cc3)CC2)cc1`, the viability was 96.1% (inactive).
The figure for `COc1ccc(NC(=O)CC2C(=O)N(Cc3ccccc3)C(=S)N2CCN2CCOCC2)cc1` (stereo not drawn) is 98.8% (inactive); for `CCOC(=O)c1c(C=O)c2ccccc2n1CC` it is 104% (inactive); for `COc1ccc([N+](=O)[O-])cc1NC(=O)c1ccc(N(Cc2ccccc2C)S(C)(=O)=O)cc1` it is 111% (inactive).
The figure for `COc1ccc(C2=Nc3cc(C)ccc3OC2)cc1` is 108% (inactive).
The figure for `COc1ccc(S(=O)(=O)N2CCCCC2)cc1NC(=O)c1cnc(C)cn1` is 105% (inactive); for `COCc1c(C(=O)Nc2cccc(S(=O)(=O)N3CCCCC3)c2)oc2ccccc12` it is 78.5% (inactive).
`Cc1ncc([N+](=O)[O-])n1Cc1cccc(F)c1`: the viability is 104% (inactive).
The result for `O=C(c1ccc(N2C(=O)C3CC=C(Cl)CC3C2=O)cc1)N1CCCCC1` (stereo not drawn) reads 107% (inactive); that for `Cc1ccc(O)c(CCc2ccccc2)n1`, 116% (inactive); that for `CCN(CC)S(=O)(=O)c1ccc(Cl)c(NC(=O)COC(=O)C2CCCCC2)c1`, 102% (inactive).
The figure for `CC(=O)c1ccc(-c2csc(N3CCC(C(N)=O)CC3)n2)cc1` is 70.7% (inactive); for `O=C(CC1=NCCNC(c2ccccc2)C1)c1ccccc1O` (stereo not drawn) it is 115% (inactive); for `CC(Sc1nc2ccccc2[nH]1)C(=O)NC1CCCCC1C` (stereo not drawn) it is 98.6% (inactive).
In the case of `CC(C)(C)NC(=O)COc1ccc(CNCc2cccnc2)cc1`, the viability is 108% (inactive).
As to `CC(=O)Nc1ccc(S(=O)(=O)NC2CCSc3ccccc32)cc1` (stereo not drawn), the viability is 110% (inactive).
The result for `O=C(COC(=O)C12CC3CC(CC(Br)(C3)C1)C2)Nc1cccc(S(=O)(=O)N2CCOCC2)c1` reads 99.3% (inactive).
The figure for `CN(C)S(=O)(=O)c1ccc(C(=O)NCCc2ccco2)cc1` is 108% (inactive).
On to `CCOCC(=O)Nc1ccc(S(=O)(=O)N2CCC(c3nc4ccccc4[nH]3)CC2)cc1`, for which the viability was 106% (inactive).
Take `COc1ccc(N2CC(C(=O)NC(C)C(=O)NCc3ccccc3OC)CC2=O)cc1` (stereo not drawn): the viability is 104% (inactive).
The result for `Cc1ccccc1C(=O)N1CCC(C(=O)Nc2ccc(C)c(S(=O)(=O)N3CCCCC3)c2)CC1` reads 15.6%.
The result for `CCOc1ccc(CCNC(=O)CCS(=O)(=O)c2ccc(C)cc2)cc1OCC` reads 90.1% (inactive); that for `CCOC(=O)c1c(N2C(=O)CC(Sc3ccccc3C(=O)O)C2=O)sc2c1CCCC2` (stereo not drawn), 98% (inactive).
The result for `O=C(OCCOc1cccc(Cl)c1)c1ccc(F)c(S(=O)(=O)N2CCOCC2)c1` reads 109% (inactive); that for `CC1CCCCC1NC(=O)COC(=O)c1ccc2ncsc2c1` (stereo not drawn), 92.6% (inactive).
Take `CCOC(=O)c1ccc(S(=O)(=O)N2CCN(C3CCCC3)CC2)cc1`: the viability was 102% (inactive).
As for `O=C(NCc1cccnc1)C(=O)NCC(c1ccco1)N1CCN(c2ccccc2)CC1` (stereo not drawn), the viability is 106% (inactive).
The result for `CCOc1ccc(-c2nc(N)ncc2-c2ccccc2)c(O)c1` reads 105% (inactive).
The result for `CN1CCN(S(=O)(=O)c2cccc(C(=O)Nc3cc(C(F)(F)F)ccc3N3CCCCC3)c2)CC1` reads 102% (inactive).
The figure for `COc1cccc(NC(=O)Nc2ccc3nc(C)c(C)nc3c2)c1` is 82.2% (inactive); for `COCCCN1CCc2[nH]c(=S)[nH]c(=O)c2C1` it is 102% (inactive).
Regarding `COc1ccccc1NS(=O)(=O)c1cc(NC(=O)CNC(=O)c2cc(C)cc(C)c2)ccc1C`, the viability is 61.6% (inactive).
The result for `O=C(NNS(=O)(=O)c1ccc2ccccc2c1)c1cccs1` reads 110% (inactive); that for `O=C(CS(=O)(=O)Cc1ccccc1)N1CCc2ccccc21`, 102% (inactive); that for `O=C(NCCN1CCN(c2ccccc2)CC1)c1cccc(Br)c1`, 96.4% (inactive).
The result for `COc1ccccc1CNC(=O)COc1ccc(C)cc1` reads 99.1% (inactive); that for `Cn1c(CNC(=O)CNC(=O)c2ccc(F)cc2)cc(=O)n(C)c1=O`, 100% (inactive); that for `COc1ccc(S(=O)(=O)N2CCCC2C(=O)Nc2ccc(C(C)=O)cc2)cc1` (stereo not drawn), 112% (inactive).
The figure for `CN(C)S(=O)(=O)c1cccc(-n2sc3ccccc3c2=O)c1` is 35.5%; for `COc1ccc(NC(=O)CSCC(=O)Nc2cccc(S(=O)(=O)N3CCCCCC3)c2)cc1` it is 68.7% (inactive).
As for `Cc1ccc(Cn2c([N+](=O)[O-])cnc2C)cc1`, the viability was 104% (inactive).
The result for `CCN(CC)C(=O)N1CCN(S(=O)(=O)c2ccc(C)cc2)CC1` reads 96.8% (inactive); that for `O=C(NCC1CCCCC1)c1ccc(Cl)c(S(=O)(=O)N2CCOCC2)c1`, 114% (inactive).
The result for `CCCCn1nc(C(=O)N2CCN(S(=O)(=O)c3ccccc3)CC2)c2ccccc2c1=O` reads 100% (inactive); that for `CCC1(C)NC(=O)N(CC(=O)N2N=C(c3ccccc3)CC2c2ccc(OC)cc2)C1=O` (stereo not drawn), 103% (inactive).
The result for `O=C(NCCC1=CCCCC1)C(=O)NCC(c1ccco1)N1CCN(c2ccccc2F)CC1` (stereo not drawn) reads 109% (inactive); that for `Cc1cc(=O)oc2c3c(cc(OCC(=O)NCc4ccncc4)c12)OC(C)(C)CC3`, 110% (inactive).
On to `O=C(O)C1CCC(Cn2c(SCc3cc(=O)n4cc(Cl)ccc4n3)nc3ccsc3c2=O)CC1` (stereo not drawn), for which the viability was 111% (inactive).
The result for `Cc1ccccc1C(=O)NCC(=O)N1CCN(C/C=C/c2ccccc2)CC1` reads 83.1% (inactive); that for `NC(=O)C1CCN(c2nc(-c3cc4ccccc4o3)cs2)CC1`, 109% (inactive); that for `Cc1ccc(OCCOC(=O)c2cc(S(=O)(=O)N3CCCCC3)ccc2N2CCOCC2)cc1`, 92.3% (inactive).
The result for `Cc1ccc(NC(=O)COC(=O)CCc2c[nH]c3ccccc23)c(C)c1` reads 122% (inactive).
The figure for `Cc1cc(Cl)c(OCCCSc2nc(C)cc(=O)[nH]2)c(Br)c1` is 107% (inactive); for `O=C(Cn1cc(C(F)(F)F)cc(Cl)c1=O)NCCc1ccc(Cl)cc1Cl` it is 103% (inactive).
Consider `CN(CC(=O)Nc1cc(S(=O)(=O)N2CCCC2)ccc1Cl)Cc1ccc2c(c1)OCO2`, for which the viability was 92.1% (inactive).
